Measured values published in patent publication US20250049946A1, “SULFONATO RESORCINARENE-COMPLEXED FLUOROQUINOLONES AND METHODS OF USE” (University of Cincinnati, priority 2023, published 2025).

Columns and labels:
P. aeruginosa = assay: in vitro antibacterial activity (MIC assay, 96-well, absorbance at 600 nm); type: cell-based, Pseudomonas aeruginosa; settings: for inhibition of bacterial cells: at higher concentration, P. aeruginosa
Procedure: (§1) The in vitro antibacterial activity was tested using a Gram-positive bacterial pathogen, S. aureus, and sensitive and resistant strains of a Gram-negative bacterial pathogen, P. aeruginosa using a high-throughput format in a 96-well microtiter plate, as described previously. Briefly, an inoculum of the test organism was grown to mid-log phase in a Luria broth (LB) medium containing 10 g/L tryptone, 5 g/L yeast extract, and 10 g/L sodium chloride. A 50 μL aliquot of the 100-fold diluted bacterial inoculum was placed in each test well. […]. All experiments were performed in triplicate. For each measurement, three samples in each replicate were analyzed and data were recorded as mean±standard deviation (SD). A paired two-tailed t-test was employed for mean comparison, with significance determined at p<0.05. The dcata analysis was conducted using the Excel program.
(§2) The antibacterial effectiveness of complexed FQs was assessed in comparison to uncomplexed FQs against Gram-positive Staphylococcus aureus (S. aureus) and Gram-negative Pseudomonas aeruginosa (P. aeruginosa) through a minimum inhibitory concentration (MIC) assay conducted at various concentrations. […] The percentage growth inhibition of bacterial cells treated with complexed and uncomplexed FQs was determined by comparing with the untreated control (FIGS. 13A-13C). The concentrations tested for P. aeruginosa and S. aureus varied based on the MIC of individual antibiotics. […]

S. aureus = assay: as above; type: cell-based, Staphylococcus aureus; settings: for inhibition of bacterial cells: at higher concentration, S. aureus
Procedure: as §1, §2

[1] = partition coefficient (Ko/w) n-octanol / phosphate buffer; type: physicochemical; settings: octanol / phosphate buffer pH 7.4, 25 °C, 24 h; complexes with 10 times higher host stock

Row | SMILES | killing of P. aeruginosa bacteria (P. aeruginosa; 4 μg/mL, 24 h, FIG. 13A) [%] | inhibition of bacterial cells (P. aeruginosa) [%] | killing of S. aureus (S. aureus; 12 μg/mL, 24 h, FIG. 13A) [%] | inhibition of bacterial cells (S. aureus) [%] | log P (experimental partition coefficient Ko/w) [1] | inhibitory effect on P. aeruginosa cells (P. aeruginosa; […] (so in the source), 24 h, FIG. 13B) [%] | inhibition at 128 µg/mL (S. aureus; Staphylococcus aureus, 128 μg/mL, 24 h, FIG. 13B, read-out: inhibitory effect on S. aureus cells) [%]
1 | O=C(O)c1cn(C2CC2)c2cc(N3CCNCC3)c(F)cc2c1=O [CIPRO, ciprofloxacin] | 100.67±0.39 | 90 | 98.30±0.26 | 90 | – | – | –
2 | C[C@H]1COc2c(N3CCN(C)CC3)c(F)cc3c(=O)c(C(=O)O)cn1c23 [LEVO, levofloxacin] | – | 90 | – | 90 | −0.41 | – | –
3 | CCn1cc(C(=O)O)c(=O)c2cc(F)c(N3CCNCC3)cc21 [NOR, norfloxacin] | – | 90 | – | 90 | – | 100.43±0.17 | 97.9 ± 0.38
4 | CC1c2cc(c(O)c(CS(=O)(=O)O)c2O)C(C)c2cc(c(O)c(CS(=O)(=O)O)c2O)C(C)c2cc(c(O)c(CS(=O)(=O)O)c2O)C(C)c2cc1c(O)c(CS(=O)(=O)O)c2O (stereo not drawn) [SRsC1, sulfonato-C-methylresorcin[4]arene] | – | – | – | – | −0.99 | – | –
